Reference: patent publication US9733262B2, “Method for measuring blood coagulation” (SEKISUI MEDICAL CO., LTD., priority 2009, dated 2017)
Structures can show the parent of a compound that is named as a salt.

Tested on: commercially available normal plasma (Coagtrol N)
Assay: Fibrinogen measurement by thrombin time method: coagulation time and change in scattered light intensity of normal plasma after adding thrombin reagent
Assay type: biochemical
Details: for coagulation time versus addition amount (FIG. 3): agent added to HEPES buffer (pH 7.5) specimen diluent, buffer alone 4.6 seconds
Protocol: When a fibrinogen concentration in a plasma specimen is measured by a thrombin time method, in general, thrombin is added to plasma to measure a coagulation time, and the concentration is determined from a standard curve prepared using standard solutions having known fibrinogen concentrations. In the procedure, 90 μL of a specimen diluent are added to and mixed with 10 μL of specimen plasma, subsequently 50 μL of a thrombin-containing reagent are added as a blood coagulation activator-containing reagent, and a coagulation time is measured.
In this example, commercially available normal plasma (Coagtrol N, manufactured by Sysmex Corporation) as the plasma specimen, a Coagpia Fbg thrombin reagent (manufactured by Sekisui Medical Co., Ltd.) as the thrombin-containing reagent, and a full-automated blood coagulation time analyzer Coagrex 800 (manufactured by Sysmex Corporation) as a coagulation time measurement apparatus were used. This apparatus employs a scattered light detection method, and change data of scattered light intensity with time can also be obtained along with the coagulation time.
When an HEPES buffer (pH 7.5) was used as the specimen diluent, the commercially available normal plasma coagulated in several seconds (4.6 seconds).
Commercially available normal plasma was measured in the same manner as in Example 1 using the specimen diluent (HEPES buffer, pH 7.5) in which the amount of the blood coagulation time prolonging agent added was adjusted so as to obtain the similar coagulation time. The comparative results of the maximum of a change ΔH in scattered light intensity and of the simultaneous reproducibility of the measurements between in the conventional method and in the present invention were shown in Table 1.
A specimen diluent containing sodium chloride as the blood coagulation time prolonging agent was defined as a conventional method A and a specimen diluent further containing polyethylene glycol (molecular weight: 20000) (hereinafter, referred to as PEG 20000) as an enhancer of a change in light intensity in the conventional method A was defined as a conventional method B, and the specimen diluents were compared with a specimen diluent employing aminoguanidine hydrochloride (present invention) which served as both of the blood coagulation time prolonging agent and the enhancer of a change in light intensity. It should be noted that an HEPES buffer (pH 7.5) was used as a buffer in all of the cases. Further, the concentration of PEG 20000 to be added in the conventional method B was set to 0.1%, because a large amount of PEG 20000 could increase the viscosity of diluent and reduce the accuracy of sampling. The coagulation time of commercially available normal plasma was measured in the same manner as in Example 1 using each specimen diluent. The change of the scattered light intensity in the conventional method B with the addition of PEG 20000 became larger than in the conventional method A without the addition.

[1] = Table 1, agent in specimen diluent (HEPES buffer pH 7.5): NaCl 145 mM, NaBr 110, KBr 105, KCl 135, LiCl 135, guanidine HCl 90, guanidine phosphate 30, guanidine sulfamate 55, aminoguanidine HCl 90, arginine HCl 55, arginine methyl ester 17 mM, single measurement for conventional methods (2)-(5), ten times for the others
[2] = Table 2, specimen diluent HEPES buffer pH 7.5, NaCl 150 mM (A), NaCl 150 mM + PEG 20000 0.1% (B), aminoguanidine hydrochloride 90 mM, mean of three times measurement

Cl.N=C(N)NCCC[C@H](N)C(=O)O [Arginine hydrochloride]
Coagulation time [1]: 10.3 s

COC(=O)[C@@H](N)CCCNC(=N)N [Arginine methyl ester]
Coagulation time [1]: 11 s

[Cl-].[Li+] [Lithium chloride]
Coagulation time [1]: 10.8 s

N=C(N)N [Guanidine hydrochloride]
Coagulation time [1]: 10.3 s

[Cl-].[K+] [Potassium chloride]
Coagulation time [1]: 10.8 s

[Cl-].[Na+] [Sodium chloride]
Coagulation time [1]: 10.7 s | Coagulation time [2]: 11.6 s | coagulation time versus addition amount (FIG. 3): prolonged in an addition concentration-dependent manner

N=C(N)N.O=P(O)(O)O [Guanidine phosphate]
Coagulation time [1]: 10.4 s

N=C(N)N.NS(=O)(=O)O [Guanidine sulfamate]
Coagulation time [1]: 11.2 s

N=C(N)NN [Aminoguanidine hydrochloride]
Coagulation time [1]: 9.7 s | Coagulation time [2]: 10.4 s | coagulation time versus addition amount (FIG. 3): prolonged in an addition concentration-dependent manner

[Br-].[K+] [Potassium bromide]
Coagulation time [1]: 11.4 s

[Br-].[Na+] [Sodium bromide]
Coagulation time [1]: 11.3 s | coagulation time versus addition amount (FIG. 3): prolonged in an addition concentration-dependent manner
